Source: paper PMC9865853, “Structural Insights Uncover the Specific Phosphoinositide Recognition by the PH1 Domain of Arap3” (International Journal of Molecular Sciences, 2023)

Target: T1, Arap3-PH1 (Homo sapiens, UniProt Q8WWN8)
T1 construct: first PH domain, residues 284-385, C-terminal 6xHis tag (pET22b), expressed in E. coli BL21(DE3)
T1 sequence (Q8WWN8 284-385): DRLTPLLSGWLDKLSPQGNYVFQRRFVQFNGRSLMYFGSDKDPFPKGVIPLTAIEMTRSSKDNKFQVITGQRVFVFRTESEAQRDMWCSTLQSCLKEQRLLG
Experiment: SPR (Biacore T200, CM5, protein immobilised), one-site fit
Type: binding

SMILES	Kd [µM]
CCCC(=O)OC[C@H](COP(=O)(O)O[C@H]1[C@H](O)[C@@H](OP(=O)(O)O)[C@H](OP(=O)(O)O)[C@@H](OP(=O)(O)O)[C@H]1O)OC(=O)CCC [diC4-PI(3,4,5)P3]	~11.4
CCCC(=O)OC[C@H](COP(=O)(O)O[C@@H]1[C@H](O)[C@H](O)[C@@H](OP(=O)(O)O)[C@H](OP(=O)(O)O)[C@H]1O)OC(=O)CCC [diC4-PI(4,5)P2]	~61.7
